Laboratory results from patent publication US10105357B2, “Indication of antibiotic drugs for preparation of cancer inhibition pharmaceutical composition” (LAUNX BIOMEDICAL CO., LTD., priority 2014, dated 2018).
Like-named read-outs stand apart in the source and are kept apart here.

Tests used:
Format in all cases: cell-based, human
[1] = tested on: A375 (Amelanotic Melanoma); test: Cell viability analysis, skin cancer A375; conditions: Homo sapiens, A-375, 72 h
[2] = tested on: LoVo (Colorectal Adenocarcinoma); test: Cell viability analysis, colon cancer LoVo; conditions: Homo sapiens, LoVo, 72 h
cancer cell lines = test: Cell viability analysis (WST-1) on cancer cell lines; conditions: drug 10 μM, 72 hours, WST-1; Table 3
[3] = tested on: MCF7 (Mammary Gland, Adenocarcinoma); test: Cell viability analysis, breast cancer MCF7; conditions: Homo sapiens, MCF7, 72 h
[4] = tested on: HL-60 (Acute Promyelocytic Leukemia); test: Cell viability analysis, leukemia HL-60; conditions: Homo sapiens, HL-60, 72 h, read-out: cell viability (survival rate), HL-60, drug 10 μM, 72 hours, WST-1, OD450 nm
[5] = tested on: BCC (basal cell carcinoma); test: Cell viability analysis, skin cancer BCC; conditions: Homo sapiens, 72 h, read-out: The results of antibiotic drug inhibiting cancer cell lines (cell viability analysis), BCC
[6] = tested on: PC3 (p53−) (Prostate Adenocarcinoma); test: Cell viability analysis, prostate cancer PC3; conditions: Homo sapiens, 72 h
T24 = test: Cell viability analysis, bladder cancer T24; conditions: Homo sapiens, T-24, 72 h, read-out: The results of antibiotic drug inhibiting cancer cell lines (cell viability analysis), T24
[7] = tested on: HeLa (Cervix Adenocarcinoma); test: Cell viability analysis, cervical cancer HeLa; conditions: Homo sapiens, HeLa, 72 h
AsPC-1 = test: Cell viability analysis, pancreatic cancer AsPC-1; conditions: Homo sapiens, ASPC1, 72 h, read-out: The results of antibiotic drug inhibiting cancer cell lines (cell viability analysis), AsPC-1
[8] = tested on: A549 (Lung Adenocarcinoma); test: Cell viability analysis, lung cancer A549; conditions: Homo sapiens, A549, 72 h
[9] = tested on: 786-O (Renal adenocarcinoma); test: Cell viability analysis, renal cancer 786-O; conditions: Homo sapiens, 786-0, 72 h, read-out: The results of antibiotic drug inhibiting cancer cell lines (cell viability analysis), 786-O
[10] = tested on: Hep3B (hepatocellular carcinoma); test: Cell viability analysis, hepatic cancer Hep3B; conditions: Homo sapiens, Hep3B, 72 h, read-out: The results of antibiotic drug inhibiting cancer cell lines (cell viability analysis), Hep3B
[11] = tested on: HI650 (Lung Adenocarcinoma); test: Cell viability analysis, lung cancer HI650; conditions: Homo sapiens, NCI-H1650, 72 h
TOV-21G = test: Cell viability analysis, ovarian cancer TOV-21G; conditions: Homo sapiens, TOV21G, 72 h, read-out: The results of antibiotic drug inhibiting cancer cell lines (cell viability analysis), TOV-21G
[12] = tested on: AGS (Gastric Adenocarcinoma); test: Cell viability analysis, gastric cancer AGS; conditions: Homo sapiens, 72 h
[13] = tested on: SAS (Tongue squamous cell carcinoma); test: Cell viability analysis, tongue cancer SAS; conditions: Homo sapiens, 72 h, read-out: The results of antibiotic drug inhibiting cancer cell lines (cell viability analysis), SAS
[14] = tested on: TSGH-8301 (Urinary Bladder Carcinoma); test: Cell viability analysis, bladder cancer TSGH-8301; conditions: Homo sapiens, 72 h
U-2OS = test: Cell viability analysis, osteosarcoma U-2OS; conditions: Homo sapiens, U2OS, 72 h, read-out: The results of antibiotic drug inhibiting cancer cell lines (cell viability analysis), U2OS
NIH: OVCAR-3 = test: Cell viability analysis, ovarian cancer NIH: OVCAR-3; conditions: Homo sapiens, OVCAR-3, 72 h, read-out: The results of antibiotic drug inhibiting cancer cell lines (cell viability analysis), NIH-OVCAR-3
[15] = tested on: MKN-45 (Gastric Adenocarcinoma); test: Cell viability analysis, gastric cancer MKN-45; conditions: Homo sapiens, MKN-45, 72 h
[16] = tested on: HepG2 (Hepatocellular Carcinoma); test: Cell viability analysis, hepatic cancer HepG2; conditions: Homo sapiens, HepG2, 72 h
[17] = tested on: C-33A (Cervical carcinoma); test: Cell viability analysis, cervical cancer C-33A; conditions: Homo sapiens, C-33-A, 72 h, read-out: The results of antibiotic drug inhibiting cancer cell lines (cell viability analysis), C-33A
[18] = tested on: MDA-MB-231 (Mammary Gland, Adenocarcinoma); test: Cell viability analysis, breast cancer MDA-MB-231; conditions: Homo sapiens, MDA-MB-231, 72 h, read-out: The results of antibiotic drug inhibiting cancer cell lines (cell viability analysis), MDA-MB231
BxPC-3 = test: Cell viability analysis, pancreatic cancer BxPC-3; conditions: Homo sapiens, BXPC-3, 72 h, read-out: The results of antibiotic drug inhibiting cancer cell lines (cell viability analysis), BxPC-3
[19] = read-out: The results of antibiotic drug inhibiting cancer cell lines (cell viability analysis), A375, A375, repeated experiment
[20] = read-out: cell viability (survival rate), A375, drug 10 μM, 72 hours, WST-1, OD450 nm
[21] = read-out: The results of antibiotic drug inhibiting cancer cell lines (cell viability analysis), MCF-7, MCF-7, repeated experiment
[22] = read-out: cell viability (survival rate), MCF7, drug 10 μM, 72 hours, WST-1, OD450 nm
[23] = read-out: The results of antibiotic drug inhibiting cancer cell lines (cell viability analysis), PC-3, PC-3, repeated experiment
[24] = read-out: cell viability (survival rate), PC3, drug 10 μM, 72 hours, WST-1, OD450 nm
[25] = read-out: The results of antibiotic drug inhibiting cancer cell lines (cell viability analysis), HeLa, repeated experiment
[26] = read-out: cell viability (survival rate), HeLa, drug 10 μM, 72 hours, WST-1, OD450 nm
[27] = read-out: The results of antibiotic drug inhibiting cancer cell lines (cell viability analysis), A549, A549, repeated experiment
[28] = read-out: cell viability (survival rate), A549, drug 10 μM, 72 hours, WST-1, OD450 nm
[29] = read-out: The results of antibiotic drug inhibiting cancer cell lines (cell viability analysis), H1650, H1650, repeated experiment
[30] = read-out: The results of antibiotic drug inhibiting cancer cell lines (cell viability analysis), AGS, repeated experiment
[31] = read-out: cell viability (survival rate), AGS, drug 10 μM, 72 hours, WST-1, OD450 nm
[32] = read-out: The results of antibiotic drug inhibiting cancer cell lines (cell viability analysis), TSGH-8301, TSGH-8301, repeated experiment
[33] = read-out: cell viability (survival rate), TSGH, drug 10 μM, 72 hours, WST-1, OD450 nm
[34] = read-out: The results of antibiotic drug inhibiting cancer cell lines (cell viability analysis), MKN-45, MKN-45, repeated experiment
[35] = read-out: cell viability (survival rate), MKN-45, drug 10 μM, 72 hours, WST-1, OD450 nm
[36] = read-out: The results of antibiotic drug inhibiting cancer cell lines (cell viability analysis), HepG2, HepG2, repeated experiment
[37] = read-out: cell viability (survival rate), HepG2, drug 10 μM, 72 hours, WST-1, OD450 nm

Row | SMILES | viability at 10 µM [1, 19] [%] | viability at 10 µM [1, 20] [%] | inhibition effect on different cancer cell lines (cancer cell lines) | viability at 10 µM [3, 21] [%] | viability at 10 µM [3, 22] [%] | viability at 10 µM [4] [%] | viability at 10 µM [5] [%] | viability at 10 µM [6, 23] [%] | viability at 10 µM [6, 24] [%] | viability at 10 µM (T24) [%] | viability at 10 µM [7, 25] [%] | viability at 10 µM [7, 26] [%] | viability at 10 µM (AsPC-1) [%] | viability at 10 µM [8, 27] [%] | viability at 10 µM [8, 28] [%] | viability at 10 µM [9] [%] | viability at 10 µM [10] [%] | viability at 10 µM [11, 29] [%] | viability at 10 µM (TOV-21G) [%] | viability at 10 µM [12, 30] [%] | further results
1 | CO[C@H]1/C=C/O[C@@]2(C)Oc3c(C)c(O)c4c(O)c(c(/C=N/N5CCN(C6CCCC6)CC5)c(O)c4c3C2=O)NC(=O)/C(C)=C\C=C\[C@H](C)[C@H](O)[C@@H](C)[C@@H](O)[C@@H](C)[C@H](OC(C)=O)[C@@H]1C [Rifapentine (Priftin), Rifapentine] | 98.2 | 77.7 | significant inhibition effect | 84.1 | 46.2 | 99.1 | 85.7 | 98.4 | 99.1 | 86.3 | 104 | 56.5 | 78.2 | 87.4 | 47.4 | 85.9 | 110 | 69 | 79.7 | 76.4 | viability at 10 µM ([2]; read-out: The results of antibiotic drug inhibiting cancer cell lines (cell viability analysis), LoVo, repeated experiment): 93.5%; viability at 10 µM ([2]; read-out: cell viability (survival rate), LoVo, drug 10 μM, 72 hours, WST-1, OD450 nm): 92.3%; viability at 10 µM [12, 31]: 63.7%; viability at 10 µM [13]: 85.4%; viability at 10 µM [14, 32]: 94.7%; viability at 10 µM [14, 33]: 99.2%; viability at 10 µM (U-2OS): 87.2%; viability at 10 µM (NIH: OVCAR-3): 104%; viability at 10 µM [15, 34]: 98.6%; viability at 10 µM [15, 35]: 58.6%; viability at 10 µM [16, 36]: 112%; viability at 10 µM [16, 37]: 102%; viability at 10 µM [17]: 91.7%; viability at 10 µM [18]: 93.3%; viability at 10 µM (BxPC-3): 74%
2 | CO[C@H]1/C=C/O[C@@]2(C)Oc3c(C)c(O)c4c(O)c(c5c(nc6cc(C)ccn65)c4c3C2=O)NC(=O)/C(C)=C\C=C\[C@H](C)[C@H](O)[C@@H](C)[C@@H](O)[C@@H](C)[C@H](OC(C)=O)[C@@H]1C [Rifaximin (Xifaxan), Rifaximin] | 98.2 | 59.5 | significant inhibition effect | 89.9 | 40.1 | 100 | 81.8 | 95.3 | 67.1 | 96.8 | 106 | 54 | 71.2 | 108 | 35.1 | 87.6 | 110 | 69.5 | 88 | 98.1 | viability at 10 µM ([11]; read-out: cell viability (survival rate), H1650, drug 10 μM, 72 hours, WST-1, OD450 nm): 82.4%; viability at 10 µM [12, 31]: 93.2%; viability at 10 µM [13]: 69.8%; viability at 10 µM [14, 32]: 114%; viability at 10 µM [14, 33]: 61.3%; viability at 10 µM (U-2OS): 72.9%; viability at 10 µM (NIH: OVCAR-3): 100%; viability at 10 µM [15, 34]: 93.5%; viability at 10 µM [15, 35]: 52.7%; viability at 10 µM [16, 36]: 115%; viability at 10 µM [16, 37]: 102%; viability at 10 µM [17]: 107%; viability at 10 µM [18]: 98.7%; viability at 10 µM (BxPC-3): 89%
